Several values for one entry are separate records, joined by “and”; a condition that tells them apart may be missing. Identical values can stand only once. Like-named read-outs stand apart in the source and are kept apart here.
Key:
[1] = Teratogenic or embryotoxic action in the mouse; type: in vivo
[2] = rat
[3] = Teratogenic or embryotoxic action in the rabbit; type: in vivo
[4] = Oedema induced by egg white in the rat (acute inflammation); type: in vivo; conditions: 100 mg/kg p.o., controls 20
Excerpt: (§1) The anti-inflammatory activity has been tested by the classic tests of the oedema induced by kaolin and egg white, which repeat two significant and different phases in the pathogenesis of the inflammatory process.
(§2) The kaolin, injected in the tibio-tarsal connection of the rat, gives place to a chronic inflammation, whereas the egg white, injected in the subplantar area of the rat, causes an acute inflammatory state.

[5] = Acute toxicity by intraperitoneal route in the mouse; conditions: in vivo, ip
[6] = Solubility; type: physicochemical
[7] = (A) Inhibition of the oedema induced by carragenin in the rat paw; type: in vivo; conditions: for ED50: rat paw
Excerpt: (A) Inhibition of the oedema induced by carragenin in the […]. Arch. Int. Pharmacodyn. 99,474. 1954). […] The subject oedema was induced in the rat and in the control animals caused a volume increase of the paw by 57.55%.

[8] = Therapeutical indexes (TD50 of 28 day subacute toxicity versus ED50 of tests A-D); type: in vivo; conditions: TD50 (28 days) versus ED50 of tests A-D
[9] = Acute toxicity per os in the mouse; type: in vivo
Excerpt: The compounds of the invention have been subjected to pharmacological tests, showing that they have a modeste or even negligible toxicity.

[10] = Oedema induced by kaolin in the rat (chronic inflammation); type: in vivo; conditions: 100 mg/kg p.o., controls 13
Excerpt: as §1, §2

[11] = for Mortality in 28 days: male and female rats
[12] = in vivo; conditions: rat
[13] = (D) Analgesic activity in the Flinch-jump test in the rat; type: in vivo
Excerpt: (D) Analgesic activity in the Flinch-jump test in the rat.
(Turner R. A. "Screening methods in Pharmacology" Accademic Press--New York 1965).

[14] = (C) Analgesic activity on the stretching induced by acetic acid in the mouse; type: in vivo
Excerpt: (C) Analgesic activity on the "stretching" induced by acetic acid in the mouse.
(Fennessy M. R., Lee C. R. "Methods in Narcotic Research" Eds. Ehrenpreise Neidle Dekker--New York 1975).

[15] = (B) Inhibition of the arthritis induced by Freund adjuvant in the rat; type: in vivo
Excerpt: (B) Inhibition of the arthritis induced by Freund adjuvant in the rat. (Newbould B.B. Brit. Journ. of Pharmacol. 21,127, 1963).

[16] = Acute toxicity by oral route in the rat; type: in vivo
[17] = in vivo; conditions: rat, ip
[18] = molecular weight taken into consideration, read-out: ED50, inhibition of carragenin oedema (molar basis)
[19] = read-out: ED50, inhibition of carragenin oedema
[20] = Flinch-jump test, rat, read-out: ED50, dose causing a 50% increase of the algogenic stimulus
[21] = rat, molar basis, read-out: ED50, Flinch-jump test (molar basis)
[22] = mouse, molar basis, read-out: ED50, stretching induced by acetic acid (molar basis)
[23] = mouse, read-out: ED50, stretching induced by acetic acid
[24] = rat, molar basis, read-out: ED50, Freund adjuvant arthritis (molar basis)

With CC(C)Cc1ccc(C(C)C(=O)Nc2cccc(C(F)(F)F)c2)cc1 (stereo not shown) [BT-03, p-isobutyl-phenyl-propionamide of metatrifluorotoluidine] as the compound, how does the “teratogenic or embryotoxic action” value [1] read?
Its value is “have not demonstrated any teratogenic or embryotoxic action”.

What about the “Mortality after 7 days” value ([2]; in vivo) of the same compound?
Its value is 1/6 and 5/6 and 6/6.

What about the “teratogenic or embryotoxic action” value [3] of the same compound?
Its value is “have not demonstrated any teratogenic or embryotoxic action”.

What about the “Egg white test increase %” value [4] of the same compound?
The value was 10 ± 5.1%.

What about the LD50 ([5]; female mice) of the same compound?
The LD50 was 1190 mg/kg.

What about the LD50 ([5]; male mice) of the same compound?
Its LD50 is 940 mg/kg.

What about the “solubility” value [6] of the same compound?
The value was “insoluble in water and soluble in most organic solvents”.

And the “times less active than Naproxene” value ([7]; molar basis)?
The value was “about 1.4 times”.

What about the “times more active than Ibuprofen” value ([7]; molar basis) of the same compound?
Its value is 2.8 times.

What about the ED50 [7, 18] of the same compound?
Its ED50 is 290 µmol/kg.

And the ED50 [7, 19]?
Its ED50 is 103 mg/kg.

And the “therapeutical index compared with Ibuprofen” value [8]?
Its value is “A constant advantage”.

What about the “LD50 by oral route in the mouse” value [9] of the same compound?
The value was “has not permitted as well to determine any LD50 value”.

And the “Kaolin test increase %” value [10]?
Its value is 7 ± 5.5%.

What about the “animals died during the test period” value ([11]; rat, in vivo, 200 mg/kg) of the same compound?
Its value is “two”.

And the TD50 at 672 h [12]?
The TD50 at 672 h was 660 µmol/kg.

What about the ED50 [13, 20] of the same compound?
The ED50 was 129 mg/kg.

And the “activity, times greater than that of the reference substance (Ibuprofen)” value ([13]; molar basis)?
Its value is “about 1.4 times”.

And the “increase of the algogenic threshold” value ([13]; rat)?
Its value is “increase of the algogenic threshold, proportionally to the administered dose”.

What about the ED50 [13, 21] of the same compound?
Its ED50 is 370 µmol/kg.

What about the “times more active than Ibuprofen” value ([14]; molar basis) of the same compound?
The value was “about 1,4 times”.

What about the “inhibition of stretching” value ([14]; mouse) of the same compound?
Its value is “does inhibit the stretching induced by acetic acid proportionally to the administered dose”.

And the ED50 [14, 22]?
Its ED50 is 350 µmol/kg.

What about the ED50 [14, 23] of the same compound?
The ED50 was 123 mg/kg.

And the ED50 ([15]; Freund adjuvant, rat, read-out: ED50, dose which causes the volume increase of the paw to be reduced by 50%)?
The ED50 was 87 mg/kg.

And the “activity with respect to Ibuprofen” value ([15]; proportionally to the administered doses)?
The value was “superior as regards the activity and of lower toxicity with respect to Ibuprofen”.

What about the “inhibition of lesions directly induced by Freund adjuvant in the injected paw” value ([15]; rat) of the same compound?
Its value is “inhibit the lesions directly induced by the Freund adjuvant in the injected paw”.

What about the “inhibition of the development of secundary lesions” value ([15]; rat) of the same compound?
Its value is “capable of inhibiting the development of the secundary lesions”.

And the ED50 [15, 24]?
Its ED50 is 250 µmol/kg.

And the “acute toxicity” value ([16]; both by oral and by intraperitoneal route)?
Its value is “very low acute toxicity”.

And the LD50 ([16]; rat, in vivo, po, 4000 mg/kg)?
Its LD50 is greater than 4000 mg/kg.

What about the LD50 ([17]; LD50 by intraperitoneal route in the rat, female rats) of the same compound?
The LD50 was 1760 mg/kg.

What about the LD50 ([17]; LD50 by intraperitoneal route in the rat, male rats) of the same compound?
The LD50 was 1620 mg/kg.

And the LD50 ([17]; LD50 ± f.l. (P 0,05), intraperitoneal, f.l. = fiduciary limits)?
Its LD50 is 1200 ± 264 mg/kg.

For CC(C)Cc1ccc(C(C)C(=O)O)cc1 (stereo not shown) [Ibuprofen, p-isobutyl-phenyl-propionic acid], which “Mortality after 7 days” value ([2]; 250 mg/kg intraperitoneal) is on record?
Its value is 0/6.

What about the “Mortality after 7 days” value ([2]; 360 mg/kg intraperitoneal) of the same compound?
The value was 2/6.

What about the “Mortality after 7 days” value ([2]; 520 mg/kg intraperitoneal) of the same compound?
The value was 5/6.

And the “Mortality after 7 days” value ([2]; 750 mg/kg intraperitoneal)?
Its value is 6/6.

And the ED50 [7, 18]?
The ED50 was 820 µmol/kg.

And the ED50 [7, 19]?
The ED50 was 170 mg/kg.

What about the “Mortality in 28 days” value ([11]; 25 mg/kg) of the same compound?
Its value is 0/10.

What about the “Mortality in 28 days” value ([11]; 50 mg/kg) of the same compound?
Its value is 3/10.

And the “Mortality in 28 days” value ([11]; 100 mg/kg)?
Its value is 4/10.

And the “Mortality in 28 days” value ([11]; 200 mg/kg)?
Its value is 5/10.

And the TD50 at 672 h [12]?
The TD50 at 672 h was 590 µmol/kg.

And the ED50 [13, 20]?
Its ED50 is 108 mg/kg.

What about the ED50 [13, 21] of the same compound?
The ED50 was 520 µmol/kg.

What about the ED50 [14, 22] of the same compound?
Its ED50 is 500 µmol/kg.

What about the ED50 [14, 23] of the same compound?
Its ED50 is 105 mg/kg.

What about the ED50 [15, 24] of the same compound?
The ED50 was 300 µmol/kg.

With COc1ccc2cc([C@H](C)C(=O)O)ccc2c1 [Naproxene, d-2(6'-methoxy-2'-naphtyl)-propionic acid] as the compound, how does the ED50 [7, 18] read?
Its ED50 is 210 µmol/kg.

And the ED50 [7, 19]?
Its ED50 is 47.9 mg/kg.

And the “Mortality in 28 days” value ([11]; 25 mg/kg)?
Its value is 2/10.

And the “Mortality in 28 days” value ([11]; 50 mg/kg)?
The value was 6/10.

What about the “Mortality in 28 days” value ([11]; 100 mg/kg) of the same compound?
Its value is 10/10.

Which “solubility” value [6] does the source give for CC(C)Cc1ccc(C(C)C(=O)NC(CCC(=O)O)C(=O)O)cc1 (stereo not shown) [glutamic amide of the p-isobutyl-phenyl-propionic acid] here?
Its value is “not soluble in water, diluted HCl and cyclohexane”.

With “lysinamide of p-isobutyl-phenyl-propionic acid” as the compound, how does the “Egg white test increase %” value [4] read?
The value was 11 ± 5.6%.

And the “Kaolin test increase %” value [10]?
Its value is 7.1 ± 5.3%.
